Test results taken from PMC4008261, “Rewiring of regenerated axons by combining treadmill training with semaphorin3A inhibition” (Molecular Brain, 2014).

Assays:
SCT adult rats [1] = assay: Remyelination after SCT (MBP/GAP43 immunostaining, electron microscopy); assay type: in vivo, rat
Procedure: (§1) Rats were randomly divided into the following three experimental groups: 1) untrained + placebo, 2) untrained + SM-345431 and 3) trained + SM-345431. SCT was performed, and SM-345431 or placebo was administered at the lesion site via the newly developed DDS, which is described in detail below. Starting 1 week post-injury, treadmill training commenced with a BSS. Kinematic tests were performed monthly for 3 months after SCT using a rodent robotic device (Rodent robot 3000, Robomedica Inc.) that primarily assessed the performance of plantar stepping on a treadmill. Treadmill training was continued throughout the experimental period.
(§2) A total of 53 adult female Sprague-Dawley rats (200-250 g, 10-12 weeks old) were used in this study (3 rats died during the experimental period and were excluded from the statistical analysis). All procedures were approved by the experimental animal care committee of Keio University, School of Medicine and Murayama Medical Center (approval #12-8). All rats were anesthetized with an intraperitoneal injection of ketamine (100 mg/kg)/xylazine (10 mg/kg). The spinal cord at the level of the T10 lamina was exposed by T10 laminectomy, and the dorsal dura mater was opened. […] Kinematic data were recorded using similar procedures prior to re-transection surgery (on the same day) and on the day following re-transection surgery. […]

[2] = system: Cell proliferation, B-Cell+LPS; assay: Pharmacological profile: cell proliferation; assay type: cell-based
Source text: (§3) Table 1 Pharmacological profile of SM-345431 (part 1) | column: IC50 (μm)

[3] = system: Cell proliferation, T-Cell+Con A; assay: Pharmacological profile: cell proliferation; assay type: cell-based
Source text: as §3

SCT adult rats [4] = assay: Kinematic analysis before and after re-transection; assay type: in vivo, rat
Procedure: as §2, with “opened. The exposed spinal cord was cut along the inner edge of the vertebra with a sharp micro-scissor.” for “opened.”
To evaluate the locomotor capability of SCT rats in detail, the aforementioned robotic device was employed. Each robotic arm tracked the two-dimensional movement of the ankle, and the trajectory of the ankle movement was then recorded on a computer for kinematic analyses. […] Briefly, the ankle trajectory in each plane was recorded by the robotic arm and a computer. […] All kinematic characteristics were obtained when TO and PC were identified; as a result, parameters such as the duration phase, the swing phase of the step cycle and the length and height of the step were calculated. […]

SCT adult rats [5] = assay: Angiogenesis after SCT (RECA-1 immunostaining); assay type: in vivo, rat; conditions: for total immunostained area of vessels with lumen diameters larger than 20 μm versus control: 3 mm and 1 mm rostral/caudal to the lesion epicenter
Procedure: as §1
A total of 53 adult female Sprague-Dawley rats (200-250 g, 10-12 weeks old) were used in this study (3 rats died during the experimental period and were excluded from the statistical analysis). All procedures were approved by the experimental animal care committee of Keio University, School of Medicine and Murayama Medical Center (approval #12-8). All rats were anesthetized with an intraperitoneal injection of ketamine (100 mg/kg)/xylazine (10 mg/kg). The spinal cord at the level of the T10 lamina was exposed by T10 laminectomy, and the dorsal dura mater was opened. The exposed spinal cord was cut along the inner edge of the vertebra with a sharp micro-scissor. Two more cuts were made at the gap of the transected spinal cord by a scalpel to ensure total transection. SM-345431 or placebo was administered to the transected site via the newly developed DDS as described in detail below (Figure 1G-I). After these procedures, the back muscles and skin were closed. Rats were kept warm in an incubator (37°C) after surgery. To prevent dehydration in the rats, 10 ml of saline was subcutaneously injected daily until day 7. Ampicillin (0.4 g/kg) was also injected intramuscularly daily to prevent infection until day 7. The bladder was evacuated manually until autonomous emptying of the bladder was achieved. […] Kinematic data were recorded using similar procedures prior to re-transection surgery (on the same day) and on the day following re-transection surgery. […]

CC(=O)c1cc2c(=O)c3c(C(=O)O)c(O)c(O)cc3oc2c(C(C)=O)c1-c1coc2cc(O)c(O)c(C(=O)O)c2c1=O [SM-345431, Vinaxanthone]
remyelination of axons (myelinated GAP43-positive axons at the lesion site) (SCT adult rats [1]; SM-345431 alone, 12 weeks post-injury): significantly enhanced the remyelination of axons
remyelination of axons (myelinated GAP43-positive axons at the lesion site) (SCT adult rats [1]; SM-345431 plus treadmill training, compared with SM-345431 alone): additional remyelination was not observed
IC50 [2]: > 10 µM
IC50 [3]: > 10 µM
step cycle area after re-transection (SCT adult rats [4]; SM-345431 alone, re-transection 12 weeks after the initial injury): tended to be attenuated
step ability after re-transection (SCT adult rats [4]; SM-345431 combined with treadmill training, average step height P < 0.01, maximum step height P < 0.05): greater attenuations of step ability were observed
total immunostained area of vessels with lumen diameters larger than 20 μm versus control (SCT adult rats [5]; SM-345431 alone): significantly increased
total immunostained area of vessels with lumen diameters larger than 20 μm versus control (SCT adult rats [5]; SM-345431 combined with treadmill training): significantly increased
RECA-1-positive areas (SCT adult rats [5]; SM-345431 combined with treadmill training, 3 mm caudal to the lesion epicenter, P < 0.05): significantly increased
